Legend:
PI3Kalpha = PI3Kalpha (Homo sapiens, UniProt P42336); assay: Biochemical PI3Kalpha assay (neomycin SPA, lipid phosphorylation); settings: human recombinant GST-PI3K
Summary of the method: (§1)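 Recombinant PI3K incubated with lipid substrate and radioactive ATP for 120 min at room temperature with gentle stirring, then stopped with neomycin-coated PVT-SPA beads, ATP 60 mM and EDTA 6.2 mM in PBS. After 60 min bead binding and centrifugation, radioactive Ptdlns(3)P counted by scintillation.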

PI3Kbeta = PI3Kbeta (Homo sapiens, UniProt P42338); assay: Biochemical PI3Kbeta assay (neomycin SPA, lipid phosphorylation); settings: human recombinant GST-PI3K
Summary of the method: as §1

[1] = target: recombinant PI3Kalpha (shortened form of the catalytic subunit) (Homo sapiens, UniProt P42336); assay: BIACORE PI3K binding assay (SPR); settings: 25° C.
Protocol: SPR measurements of the binding affinities and binding kinetics on PI3Kalpha surfaces with the aid of Biacore systems. The experiments are carried out on a Biacore S51 “Compound Characterization” or a Biacore T100 instrument utilising the default application “Kinetics/Affinity” Experimental conditions: recombinant PI3Kalpha (shortened form of the catalytic subunit, missing N terminal from about 100 to 150 aa, Mw about 110 kDa, prepared by Proteros Biostructures GmbH) is immobilised on Biacore CM5 chips (25° C., flow rate: 10 μl/min, utilising amine coupling at pH 7.40—Biacore Standard protocol). PI3Kalpha is employed in concentrations between 10 and 25 μg/ml. Depending on the duration of the injection time, immobilisation levels from 1700 to 11000 RU are achieved. The substances to be measured are added in the form of a titration series. The substance concentration is doubled for each subsequent injection. 10 different substance concentrations which cover a 500-fold dilution range are usually injected. […] Kinetic titration experiments are carried out at 25° C. with a flow rate of 30 μl/min, the sample contact time is 180 s, and the dissociation time is 240 s in a running buffer (20 mM HEPES pH7.40, 150 mM NaCl, 5 mM MgCl2, 1 mM DTT, 0.1 mM EDTA, 0.05% Tween 20) comprising 2% of DMSO. Buffer injections (as double references) identical to the sample injections are carried out in each case at the beginning of a continuous series. Solvent correction cycles (eight correction points, 1.4%-2.8% DMSO) are carried out at equal intervals. In order to condition the surface, at least five start-up cycles (buffer injections) are carried out. Data points are collected with a sample rate of 10 Hz. Surface regeneration is carried out after each measurement cycle, apart from after the solvent correction runs. For this purpose, two times 100 mM NaHCO3 pH 8.60 are injected for 30 sec. Data sets are processed and analysed using the Biacore S51 Evaluation software, version 1.2.1, or Biacore T100 Evaluation, version 2.0. Solvent-corrected and double-referenced association and dissociation phase data are adapted to a simple 1:1 interaction model with mass transport limitations.

[2] = system: PI3K-dependent phosphorylation of PKB at Serin 473 in PC3 cells; assay: Cellular PI3K assay (P-S473-PKB Luminex assay in PC3 cells); type: cell-based; settings: Homo sapiens, PC-3, 0.5 h; PC3 cells, 30 min, serum-free, P-S473-PKB; read-out: IC50 (cell)
Summary of the method: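 PC3 cells were exposed for 30 min under serum-free conditions to 7 concentrations of compound, then lysed. Lysates were captured overnight at 4°C on anti-total-PKB Luminex beads and detected with P-S473-PKB antibody plus PE-labelled secondary.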

DNA-PK protein complex = DNA-PK protein complex (Homo sapiens, UniProt P78527); assay: Biochemical DNA-PK assay (FlashPlate)
Summary of the method: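 Streptavidin-coated FlashPlate radiometric kinase assay, stopped with 200 mM EDTA, then wells washed with 0.9% NaCl and bound radioactivity counted. Blank (non-specific reaction) defined with a proprietary kinase inhibitor at 10 μM.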

mTOR = target: T1, mTOR (Homo sapiens, UniProt P42345); assay: Biochemical mTOR assay (Millipore mTOR assay kit)
T1 construct: purchased Millipore 14-770
Protocol: The biochemical mTOR assay was carried out by the method described in the Millipore mTOR assay kit (catalogue number 14-770).

Chain of recombinant PI3Kalpha (shortened form of the catalytic subunit) (P42336 151-1068 limits assumed): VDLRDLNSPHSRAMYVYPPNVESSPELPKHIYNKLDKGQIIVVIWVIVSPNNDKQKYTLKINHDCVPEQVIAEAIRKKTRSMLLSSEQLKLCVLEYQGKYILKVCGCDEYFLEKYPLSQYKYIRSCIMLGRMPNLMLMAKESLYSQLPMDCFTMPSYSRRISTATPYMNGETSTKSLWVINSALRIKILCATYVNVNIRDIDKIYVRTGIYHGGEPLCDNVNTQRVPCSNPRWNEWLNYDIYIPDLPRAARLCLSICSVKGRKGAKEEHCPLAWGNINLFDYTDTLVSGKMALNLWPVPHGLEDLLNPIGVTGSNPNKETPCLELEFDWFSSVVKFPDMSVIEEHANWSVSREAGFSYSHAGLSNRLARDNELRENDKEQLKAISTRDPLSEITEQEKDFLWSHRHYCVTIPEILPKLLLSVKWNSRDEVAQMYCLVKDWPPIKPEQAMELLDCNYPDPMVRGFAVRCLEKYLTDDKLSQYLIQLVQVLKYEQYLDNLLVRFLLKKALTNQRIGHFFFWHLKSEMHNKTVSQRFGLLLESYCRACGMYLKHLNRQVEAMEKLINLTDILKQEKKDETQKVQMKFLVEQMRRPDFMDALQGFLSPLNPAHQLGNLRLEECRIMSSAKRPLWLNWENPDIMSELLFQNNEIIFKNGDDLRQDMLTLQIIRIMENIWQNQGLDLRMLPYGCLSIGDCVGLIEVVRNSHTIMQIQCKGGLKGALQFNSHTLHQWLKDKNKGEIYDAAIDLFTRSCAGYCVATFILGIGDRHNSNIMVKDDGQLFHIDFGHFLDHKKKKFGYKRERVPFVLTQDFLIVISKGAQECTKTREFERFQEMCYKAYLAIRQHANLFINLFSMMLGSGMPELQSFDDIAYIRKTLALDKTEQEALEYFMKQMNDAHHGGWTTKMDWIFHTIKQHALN
Chain of PI3Kalpha (P42336 whole entry): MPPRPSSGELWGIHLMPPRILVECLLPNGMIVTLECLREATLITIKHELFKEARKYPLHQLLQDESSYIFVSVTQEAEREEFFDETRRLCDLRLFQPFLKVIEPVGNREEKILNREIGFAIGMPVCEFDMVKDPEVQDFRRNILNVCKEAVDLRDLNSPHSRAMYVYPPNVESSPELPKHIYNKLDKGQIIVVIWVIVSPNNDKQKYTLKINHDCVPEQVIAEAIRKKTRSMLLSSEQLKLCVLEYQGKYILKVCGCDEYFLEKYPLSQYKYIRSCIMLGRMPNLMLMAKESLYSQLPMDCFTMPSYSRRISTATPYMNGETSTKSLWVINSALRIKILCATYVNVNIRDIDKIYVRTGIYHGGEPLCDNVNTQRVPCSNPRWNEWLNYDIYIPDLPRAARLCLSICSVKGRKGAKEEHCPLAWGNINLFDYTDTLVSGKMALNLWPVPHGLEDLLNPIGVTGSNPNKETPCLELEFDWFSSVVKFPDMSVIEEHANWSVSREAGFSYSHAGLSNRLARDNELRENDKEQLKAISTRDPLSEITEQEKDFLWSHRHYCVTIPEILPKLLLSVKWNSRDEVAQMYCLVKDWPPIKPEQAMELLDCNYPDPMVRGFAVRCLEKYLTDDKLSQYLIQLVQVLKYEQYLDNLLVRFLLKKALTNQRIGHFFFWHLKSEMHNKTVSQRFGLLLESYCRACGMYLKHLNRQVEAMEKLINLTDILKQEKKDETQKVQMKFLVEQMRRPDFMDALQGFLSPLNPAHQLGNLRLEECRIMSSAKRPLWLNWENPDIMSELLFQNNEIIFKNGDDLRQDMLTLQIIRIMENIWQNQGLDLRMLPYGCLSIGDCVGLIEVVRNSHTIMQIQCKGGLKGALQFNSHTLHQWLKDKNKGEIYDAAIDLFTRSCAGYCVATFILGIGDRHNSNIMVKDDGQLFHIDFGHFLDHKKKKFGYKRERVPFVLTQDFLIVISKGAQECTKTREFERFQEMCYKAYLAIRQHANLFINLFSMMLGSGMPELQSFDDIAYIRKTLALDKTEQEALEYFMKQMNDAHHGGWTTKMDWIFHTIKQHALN
Chain of PI3Kalpha (P27986 whole entry partner): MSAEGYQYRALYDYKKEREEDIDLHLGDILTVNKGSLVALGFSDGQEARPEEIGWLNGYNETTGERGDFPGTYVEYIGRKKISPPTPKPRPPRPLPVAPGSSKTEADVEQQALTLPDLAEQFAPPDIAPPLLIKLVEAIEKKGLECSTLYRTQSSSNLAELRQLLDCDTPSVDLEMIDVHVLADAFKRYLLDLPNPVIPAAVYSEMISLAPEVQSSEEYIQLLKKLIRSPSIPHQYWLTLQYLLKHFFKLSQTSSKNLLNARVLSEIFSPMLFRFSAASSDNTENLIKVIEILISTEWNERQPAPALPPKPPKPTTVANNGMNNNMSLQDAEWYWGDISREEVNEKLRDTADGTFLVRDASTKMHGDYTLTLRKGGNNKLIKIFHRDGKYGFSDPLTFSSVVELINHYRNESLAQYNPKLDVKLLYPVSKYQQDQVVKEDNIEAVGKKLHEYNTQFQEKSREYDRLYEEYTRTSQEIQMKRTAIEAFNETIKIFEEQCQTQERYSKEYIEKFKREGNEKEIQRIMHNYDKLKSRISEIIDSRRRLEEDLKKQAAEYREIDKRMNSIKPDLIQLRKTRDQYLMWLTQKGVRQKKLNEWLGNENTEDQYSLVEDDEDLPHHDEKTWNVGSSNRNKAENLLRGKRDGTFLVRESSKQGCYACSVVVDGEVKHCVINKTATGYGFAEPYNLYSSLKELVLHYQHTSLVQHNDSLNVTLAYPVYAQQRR
Chain of PI3Kbeta (P42338 whole entry): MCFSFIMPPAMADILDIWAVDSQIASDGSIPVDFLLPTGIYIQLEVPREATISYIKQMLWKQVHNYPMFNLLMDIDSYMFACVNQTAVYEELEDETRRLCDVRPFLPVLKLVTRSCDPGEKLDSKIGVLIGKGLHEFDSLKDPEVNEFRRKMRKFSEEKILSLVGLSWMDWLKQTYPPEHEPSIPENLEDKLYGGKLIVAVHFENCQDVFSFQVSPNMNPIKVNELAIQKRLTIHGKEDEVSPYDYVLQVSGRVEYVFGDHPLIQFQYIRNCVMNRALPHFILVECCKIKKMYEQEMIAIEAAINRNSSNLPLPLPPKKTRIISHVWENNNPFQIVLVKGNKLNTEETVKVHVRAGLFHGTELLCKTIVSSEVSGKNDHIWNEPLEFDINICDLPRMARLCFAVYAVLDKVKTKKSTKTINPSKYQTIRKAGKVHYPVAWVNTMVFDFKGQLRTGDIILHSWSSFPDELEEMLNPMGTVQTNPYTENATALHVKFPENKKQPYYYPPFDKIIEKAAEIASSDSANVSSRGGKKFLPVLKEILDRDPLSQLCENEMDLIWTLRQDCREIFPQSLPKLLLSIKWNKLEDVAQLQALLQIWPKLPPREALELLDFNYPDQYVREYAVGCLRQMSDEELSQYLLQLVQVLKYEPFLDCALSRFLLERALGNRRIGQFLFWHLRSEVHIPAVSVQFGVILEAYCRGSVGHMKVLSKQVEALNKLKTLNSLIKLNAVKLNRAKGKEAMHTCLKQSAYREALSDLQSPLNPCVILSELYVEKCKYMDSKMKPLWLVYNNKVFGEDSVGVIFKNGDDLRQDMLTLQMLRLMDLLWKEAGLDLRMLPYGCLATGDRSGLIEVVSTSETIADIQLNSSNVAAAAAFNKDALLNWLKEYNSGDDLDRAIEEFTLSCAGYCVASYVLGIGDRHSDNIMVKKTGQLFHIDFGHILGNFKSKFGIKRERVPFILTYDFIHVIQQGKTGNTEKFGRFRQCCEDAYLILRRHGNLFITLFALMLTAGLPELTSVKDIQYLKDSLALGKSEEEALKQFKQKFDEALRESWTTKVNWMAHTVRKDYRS
Chain of PI3Kbeta (P27986 whole entry partner): as the sequence (P27986 whole entry partner) above
T1 sequence (P42345 1362-2549 limits assumed): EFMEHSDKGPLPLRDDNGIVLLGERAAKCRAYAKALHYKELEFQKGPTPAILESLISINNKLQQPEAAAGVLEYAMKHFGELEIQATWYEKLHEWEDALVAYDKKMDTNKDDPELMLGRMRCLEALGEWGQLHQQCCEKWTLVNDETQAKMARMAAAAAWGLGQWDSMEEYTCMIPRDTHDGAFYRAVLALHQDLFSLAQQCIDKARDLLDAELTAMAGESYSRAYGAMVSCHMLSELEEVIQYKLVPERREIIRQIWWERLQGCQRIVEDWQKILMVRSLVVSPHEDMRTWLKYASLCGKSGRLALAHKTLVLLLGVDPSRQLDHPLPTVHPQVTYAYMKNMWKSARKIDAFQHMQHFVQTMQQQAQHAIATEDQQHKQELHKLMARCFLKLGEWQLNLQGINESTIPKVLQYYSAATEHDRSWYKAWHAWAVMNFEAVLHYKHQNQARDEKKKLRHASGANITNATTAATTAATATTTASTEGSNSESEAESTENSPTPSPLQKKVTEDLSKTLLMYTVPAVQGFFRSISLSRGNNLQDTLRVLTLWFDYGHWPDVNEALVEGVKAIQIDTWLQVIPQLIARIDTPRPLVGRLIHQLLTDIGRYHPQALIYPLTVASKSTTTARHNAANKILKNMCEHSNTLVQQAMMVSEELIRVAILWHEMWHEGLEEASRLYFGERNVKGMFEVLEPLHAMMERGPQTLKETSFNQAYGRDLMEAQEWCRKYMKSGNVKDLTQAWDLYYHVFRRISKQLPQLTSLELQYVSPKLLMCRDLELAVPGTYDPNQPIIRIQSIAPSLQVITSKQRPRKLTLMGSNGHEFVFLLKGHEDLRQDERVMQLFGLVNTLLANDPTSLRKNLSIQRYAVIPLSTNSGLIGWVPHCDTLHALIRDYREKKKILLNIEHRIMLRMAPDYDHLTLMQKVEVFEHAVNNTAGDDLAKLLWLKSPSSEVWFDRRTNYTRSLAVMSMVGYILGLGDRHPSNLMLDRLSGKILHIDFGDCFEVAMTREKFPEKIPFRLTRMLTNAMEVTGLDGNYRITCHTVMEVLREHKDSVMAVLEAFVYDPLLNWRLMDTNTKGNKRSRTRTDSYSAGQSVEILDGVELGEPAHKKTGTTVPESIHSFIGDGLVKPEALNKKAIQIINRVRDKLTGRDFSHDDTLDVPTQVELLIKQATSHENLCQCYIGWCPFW

| SMILES | IC50 (PI3Kalpha) | IC50 (PI3Kbeta) | Kd [1] | IC50 [2] | IC50 (DNA-PK protein complex) | IC50 (mTOR) |
| --- | --- | --- | --- | --- | --- | --- |
| COc1cccc(-c2ccnc(-c3cn(C)c(=O)n3-c3ccc(C(C)(C)C#N)cc3)c2)c1 [Example A3, 2-(4-{5-[4-(3-Methoxyphenyl)pyridin-2-yl]-3-methyl-2-oxo-2,3-dihydroimidazol-1-yl}phenyl)-2-methylpropionitrile] | 100 to 10000 nM | > 10000 nM | 100 to 10000 nM | > 10000 nM | 0.1 to 100 nM | > 10000 nM |
| COc1ccc(-c2ccnc(-c3cn(C)c(=O)n3-c3ccc(N4CCNCC4)c(C(F)(F)F)c3)c2)cn1 [Example A20, 4-(6-Methoxy-[3,4′]bipyridinyl-2′-yl)-1-methyl-3-(4-piperazin-1-yl-3-trifluoro-methylphenyl)-1,3-dihydroimidazol-2-one] | 100 to 10000 nM | 100 to 10000 nM | 100 to 10000 nM | 100 to 10000 nM | 0.1 to 100 nM | 100 to 10000 nM |
| Cn1cc(-c2cc(-c3cnc4ccccc4c3)ccn2)n(-c2ccc(C(C)(C)C(=O)O)cc2)c1=O [Example A22, 2-Methyl-2-{4-[3-methyl-2-oxo-5-(4-quinolin-3-ylpyridin-2-yl)-2,3-dihydroimidazol-1-yl]phenyl}propionic acid] | 100 to 10000 nM | > 10000 nM | 100 to 10000 nM | > 10000 nM | 100 to 10000 nM | 100 to 10000 nM |
| Cn1cc(-c2cc(-c3ccnc4[nH]ccc34)ccn2)n(-c2ccc(C(C)(C)C#N)cc2)c1=O [Example A23, 2-Methyl-2-(4-{3-methyl-2-oxo-5-[4-(1H-pyrrolo[2,3-b]pyridin-4-yl)pyridin-2-yl]-2,3-dihydroimidazol-1-yl}phenyl)propionitrile] | 100 to 10000 nM | > 10000 nM | 100 to 10000 nM | 100 to 10000 nM | 0.1 to 100 nM | 100 to 10000 nM |
| CCn1cc(-c2cc(-c3cnc4[nH]ccc4c3)ccn2)n(-c2ccc(C(C)(C)C#N)cc2)c1=O [Example A24, 2-(4-{3-Ethyl-2-oxo-5-[4-(1H-pyrrolo[2,3-b]pyridin-5-yl)pyridin-2-yl]-2,3-dihydro-imidazol-1-yl}phenyl)-2-methylpropionitrile] | 100 to 10000 nM | 100 to 10000 nM | 0.1 to 100 nM | 100 to 10000 nM | 0.1 to 100 nM | 0.1 to 100 nM |
| Cn1cc(-c2cc(-c3cnc4[nH]c(C(F)(F)F)cc4c3)ccn2)n(-c2ccc(C(C)(C)C#N)cc2)c1=O [Example A27, 2-Methyl-2-(4-{3-methyl-2-oxo-5-[4-(2-trifluoromethyl-1H-pyrrolo[2,3-b]pyridin-5-yl)pyridin-2-yl]-2,3-dihydroimidazol-1-yl}phenyl)propionitrile] | 100 to 10000 nM | > 10000 nM | 100 to 10000 nM | 100 to 10000 nM | 0.1 to 100 nM | 0.1 to 100 nM |
| Cn1cc(-c2cc(-c3ccc(=O)[nH]c3)ccn2)n(-c2ccc(C(C)(C)C#N)cc2)c1=O [Example A39, 2-{4-[5-(6-Hydroxy-[3,4′]bipyridinyl-2′-yl)-3-methyl-2-oxo-2,3-dihydroimidazol-1-yl]phenyl}-2-methylpropionitrile] |  |  |  | > 10000 nM | 0.1 to 100 nM | 100 to 10000 nM |
| Cn1cc(-c2cc(-c3cnc4[nH]ncc4c3)ccn2)n(-c2ccc(N3CCNCC3)c(C(F)(F)F)c2)c1=O [Example A46, 1-Methyl-3-(4-piperazin-1-yl-3-trifluoromethylphenyl)-4-[4-(1H-pyrazolo[3,4-b]-pyridin-5-yl)pyridin-2-yl]-1,3-dihydroimidazol-2-one] | 0.1 to 100 nM | 100 to 10000 nM | 0.1 to 100 nM | 100 to 10000 nM | 0.1 to 100 nM | 100 to 10000 nM |
| CN1CCN(c2ccc(-n3c(-c4cc(-c5cnc6[nH]ccc6c5)ccn4)cn(C)c3=O)cc2)CC1 [Example A50, 1-Methyl-3-[4-(4-methylpiperazin-1-yl)phenyl]-4-[4-(1H-pyrrolo[2,3-b]pyridin-5-yl)pyridin-2-yl]-1,3-dihydroimidazol-2-one] | 100 to 10000 nM | 100 to 10000 nM | 0.1 to 100 nM | 100 to 10000 nM | 0.1 to 100 nM | 100 to 10000 nM |
| Cn1cc(-c2cc(-c3ccc(NS(C)(=O)=O)nc3)ccn2)n(-c2ccc(N3CCNCC3)c(C(F)(F)F)c2)c1=O [Example A61, N-{2′-[1-Methyl-2-oxo-3-(4-piperazin-1-yl-3-trifluoromethylphenyl)-2,3-dihydro-1H-imidazol-4-yl]-[3,4′]bipyridinyl-6-yl}methanesulfonamide] | 100 to 10000 nM | > 10000 nM |  | > 10000 nM | 0.1 to 100 nM | 100 to 10000 nM |
| Cn1cc(-c2cc(-c3cnc4[nH]ccc4c3)ccn2)n(-c2ccc(N3CCN(S(C)(=O)=O)CC3)c(C(F)(F)F)c2)c1=O [Example A74, 3-[4-(4-Methanesulfonylpiperazin-1-yl)-3-trifluoromethylphenyl]-1-methyl-4-[4-(1H-pyrrolo[2,3-b]pyridin-5-yl)pyridin-2-yl]-1,3-dihydroimidazol-2-one] | 100 to 10000 nM | 100 to 10000 nM |  | 0.1 to 100 nM | 0.1 to 100 nM | 0.1 to 100 nM |
| CCN1CCN(c2ccc(-n3c(-c4cc(-c5cnc6[nH]ccc6c5)ccn4)cn(C)c3=O)cc2C(F)(F)F)CC1 [Example A77, 3-[4-(4-Ethylpiperazin-1-yl)-3-trifluoromethylphenyl]-1-methyl-4-[4-(1H-pyrrolo[2,3-b]pyridin-5-yl)pyridin-2-yl]-1,3-dihydroimidazol-2-one] | 100 to 10000 nM | 100 to 10000 nM |  | 0.1 to 100 nM | 0.1 to 100 nM | > 10000 nM |

Results, then the molecule that gave them:

| IC50 (PI3Kalpha) | IC50 (PI3Kbeta) | Kd [1] | IC50 [2] | IC50 (DNA-PK protein complex) | IC50 (mTOR) | SMILES |
| --- | --- | --- | --- | --- | --- | --- |
| 100 to 10000 nM | > 10000 nM |  | 100 to 10000 nM | 0.1 to 100 nM | 100 to 10000 nM | Cn1cc(-c2cc(-c3cnc4[nH]ccc4c3)ccn2)n(-c2ccc(F)c(C(F)(F)F)c2)c1=O [Example A51, 3-(4-Fluoro-3-trifluoromethylphenyl)-1-methyl-4-[4-(1H-pyrrolo[2,3-b]pyridin-5-yl)pyridin-2-yl]-1,3-dihydroimidazol-2-one] |
| 100 to 10000 nM | > 10000 nM |  | 100 to 10000 nM | 0.1 to 100 nM | 100 to 10000 nM | N#Cc1cccc(-n2c(-c3cc(-c4cnc5[nH]ccc5c4)ccn3)cn(C(F)F)c2=O)c1 [Example A75, 3-{3-Difluoromethyl-2-oxo-5-[4-(1H-pyrrolo[2,3-b]pyridin-5-yl)pyridin-2-yl]-2,3-dihydroimidazol-1-yl}benzonitrile] |
| > 10000 nM | > 10000 nM |  | > 10000 nM | 0.1 to 100 nM | 0.1 to 100 nM | Cn1cc(-c2cc(-c3cnc4[nH]ccc4c3)ccn2)n(-c2ccccc2OC(F)(F)F)c1=O [Example A76, 1-Methyl-4-[4-(1H-pyrrolo[2,3-b]pyridin-5-yl)pyridin-2-yl]-3-(2-trifluoromethoxy-phenyl)-1,3-dihydroimidazol-2-one] |
| 100 to 10000 nM | 100 to 10000 nM |  | 100 to 10000 nM | 0.1 to 100 nM | 100 to 10000 nM | Cc1cccc(-n2c(-c3cc(-c4cnc5[nH]ccc5c4)ccn3)cn(C)c2=O)c1 [Example A79, 1-Methyl-4-[4-(1H-pyrrolo[2,3-b]pyridin-5-yl)pyridin-2-yl]-3-m-tolyl-1,3-dihydro-imidazol-2-one] |
| 100 to 10000 nM | 100 to 10000 nM |  | 100 to 10000 nM | 0.1 to 100 nM | > 10000 nM | CC(C)c1cccc(-n2c(-c3cc(-c4cnc5[nH]ccc5c4)ccn3)cn(C)c2=O)c1 [Example A80, 3-(3-Isopropylphenyl)-1-methyl-4-[4-(1H-pyrrolo[2,3-b]pyridin-5-yl)pyridin-2-yl]-1,3-dihydroimidazol-2-one] |

— US8802866B2, “Pyridinylimidazolone derivatives for the inhibition of PI3 kinases” (Merck Patent GmbH, priority 2009, dated 2014)
